Laboratory results: patent publication US11105794B2, “In vitro nephrotoxicity screening assay” (Hoffmann-La Roche Inc., priority 2016, dated 2021)

What was measured:
PTEC-TERT1 cells = test: EGF assay, supernatant of PTEC-TERT1 cells; conditions: for Toxicity grade: from EGF, assay window saline vs toxic reference compound 4-1
Protocol: Prior to treatment with oligonucleotides the PTEC-TERT1 were seeded into collagen I-coated 96-well plates (Corning, 356407) at a density of 40 000 and 20 000 cells/well respectively in PTEC medium and grown until confluence.
Oligonucleotides were dissolved in PBS and added to the cell culture at the given concentration, such as 10, 30 or 100 μM. The total volume of each well was 100 μl. PBS served as vehicle control.
When extra cellular markers, like EGF and KIM-1, were analyzed following the oligonucleotide treatment the medium was collected and stored at −20° C. until further analysis. […] The collected medium was stored at −20° C.
For analysis of human EGF, cell supernatants were thawed on ice, diluted 1:2 and 1:10 in sample dilution buffer (BioRad catalog # M60-009RDPD) and analyzed by Luminex®-based ELISA using human EGF beads (Bio-Plex Pro™ Human Cancer Biomarker Panel 2 EGF Set#171BC603M), or followed by analysis using the Bio-Plex® 200 Systems (BioRad) according to the manufacturer's instructions. Data are reported as mean concentrations and standard deviations of triplicate wells.

A549 cells [1] = test: EGF assay, A549 cells transfected with oligonucleotide; type: cell-based, human; conditions: A549, 48 hours after transfection;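 further: values as percent of saline control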
Protocol: (§1) A549 cells (ATCC CCL-185) were cultivated according to the manufacturer's instructions in A549 medium [F-12K Nut Mix (Gibco, 21127-022), 1% penicillin/streptomycin (Gibco: 15140-122), 10% FBS (Gibco 16000-044)].
(§2) Prior to treatment with oligonucleotides the A549 cells were seeded in 96 well plates at 3′000 cells per well in A549 regular medium and grown until 60% confluence. […]
(§3) A549 were cultivated as described in the “Materials and methods” section. At after at 50-60% confluence the oligonucleotides were transfected into the cells using 0.5 μl Lipofectamin (Invitrogen, 11668-019) in 25 μl OptiMEM® (GIBCO 31985062) and 1 ng or 10 ng oligonucleotide in the same volume OptiMEM. The cells were incubated over night at 37° C. The medium was changed using A459 regular medium+10 ng/ml EGF. 48 hours after transfection the medium was collected for EGF measurements and the cells were harvested for ATP measurements.

A549 cells [2] = test: Intracellular ATP assay, A549 cells transfected with oligonucleotide; type: cell-based, human; conditions: A549, 48 hours after transfection;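 further: ATP as percent of saline control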
Protocol: as §1, §2
Each sample was tested in triplicate.
as §3

[3] = system: Primary human hepatocytes; test: EGF assay, culture media of primary human hepatocytes; type: cell-based; conditions: 10 ng/ml EGF in medium;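 further: values as percent of saline vehicle control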
Protocol: Cryopreserved human hepatocytes were suspended in William's Medium E (WME) without phenol red (Sigma W-1878) supplemented with 10% fetal calf serum, penicillin (100 U/ml), streptomycin (0.1 mg/ml) at a density of approx. 1×10^6 cells/ml and seeded into collagen-coated 96-well plates (Becton Dickinson AG, Allschwil, Switzerland) at a density of 0.4×10^5 cells/well. Cells were pre-cultured for 3 to 4 h allowing for attachment to cell culture plates before start of treatment with oligonucleotides.
Before oligonucleotide treatment the seeding medium was replaced by 90 μl of serum free WME.
The total volume of each well was 100 μl. PBS served as vehicle control.
Human primary hepatocytes were cultivated as described in the “Materials and methods” section with addition of 10 ng/ml of EGF to the medium. At confluence the cells were treated with oligonucleotide as described in the “Materials and methods” section, in concentrations of 10 or 100 μM.
The medium was obtained at day 3, and the EGF level was measured according to the assay described in the “Materials and methods” section.

[4] = PTEC-TERT1, 6 days, 10 μM oligonucleotide (Table 7)
[5] = PTEC-TERT1, 6 days, 30 μM oligonucleotide (Table 7)
[6] = PTEC-TERT1, Day 6, 10 μM (Table 4)
[7] = PTEC-TERT1, Day 6, 30 μM (Table 4)
[8] = PTEC-TERT1, Day 6, 100 μM (Table 4)

| Substance | EGF (PTEC-TERT1 cells; [4]) [% saline] | Toxicity grade (PTEC-TERT1 cells; PTEC-TERT1, 6 days, 10 μM) | EGF (PTEC-TERT1 cells; [5]) [% saline] | Toxicity grade (PTEC-TERT1 cells; PTEC-TERT1, 6 days, 30 μM) | EGF (PTEC-TERT1 cells; [6]) [% saline] | EGF (PTEC-TERT1 cells; [7]) [% saline] | EGF (PTEC-TERT1 cells; [8]) [% saline] | other results |
| --- | --- | --- | --- | --- | --- | --- | --- | --- |
| ACTgcrtttcrcacrtCTG (antisense ACTGCTTTCCACTCTG; LNA gapmer, stereodefined phosphorothioates, chemistry not fully specified) [Compound 8-3] | 869 | 32 | 3416 | 46 |  |  |  |  |
| ACTgcstttcscacstCTG (antisense ACTGCTTTCCACTCTG; LNA gapmer, stereodefined phosphorothioates, chemistry not fully specified) [Compound 8-2] | 5723 | 219 | 25199 | 347 |  |  |  |  |
| ACTgctttccactCTG (ACTGCTTTCCACTCTG; chemistry not given here) [Compound 8-1] | 8412 | 323 | 15126 | 208 | 1153 | 1359 | 1545 | EGF (A549 cells [1]; 1 ng oligonucleotide): 140 % saline; EGF (A549 cells [1]; 10 ng oligonucleotide): 233 % saline; ATP (A549 cells [2]; 1 ng oligonucleotide): 101 % saline; ATP (A549 cells [2]; 10 ng oligonucleotide): 58 % saline |
| ATTgcattgtttcCGT (ATTGCATTGTTTCCGT; chemistry not given here) [Compound 18-1] |  |  |  |  | 223 | 203 | 290 |  |
| CAAaggaaacacaCAT (CAAAGGAAACACACAT; chemistry not given here) [Compound 6-1] |  |  |  |  | 78 | 90 | 118 |  |
| CAAatgctgaaacTAT (CAAATGCTGAAACTAT; chemistry not given here) [Compound 7-1] |  |  |  |  | 37 | 40 | 67 |  |
| CACattccttgctCTG (CACATTCCTTGCTCTG; chemistry not given here) [Compound 10-1] | 305 | 11 | 1283 | 17 | 73 | 330 | 783 | EGF ([3]; day 3, 10 μM): 145 % saline; EGF ([3]; day 3, 100 μM): 574 % saline |
| CACattrccttrgctrCTrG (antisense CACATTCCTTGCTCTG; LNA gapmer, stereodefined phosphorothioates, chemistry not fully specified) [Compound 10-3] | 248 | 9 | 1740 | 23 |  |  |  |  |
| CACattrcrcttrgrctCTG (antisense CACATTCCTTGCTCTG; LNA gapmer, stereodefined phosphorothioates, chemistry not fully specified) [Compound 10-5] | 369 | 13 | 1069 | 14 |  |  |  |  |
| CACattsccttsgctsCTsG (antisense CACATTCCTTGCTCTG; LNA gapmer, stereodefined phosphorothioates, chemistry not fully specified) [Compound 10-2] | 93 | 3 | 156 | 1 |  |  |  |  |
| CACattscscttsgsctCTG (antisense CACATTCCTTGCTCTG; LNA gapmer, stereodefined phosphorothioates, chemistry not fully specified) [Compound 10-4] | 60 | 1 | 157 | 1 |  |  |  |  |
| CATtgcattgttTCCG (CATTGCATTGTTTCCG; chemistry not given here) [Compound 19-2] |  |  |  |  | 370 | 606 | 770 |  |
| CATtgcattgtttCCG (CATTGCATTGTTTCCG; chemistry not given here) [Compound 19-1] |  |  |  |  | 317 | 310 | 413 |  |
| CGTttgtgctcgATA (CGTTTGTGCTCGATA; chemistry not given here) [Compound 17-1] |  |  |  |  | 342 | 550 | 693 |  |
| CGTttgtgctcgaTAA (CGTTTGTGCTCGATAA; chemistry not given here) [Compound 16-1] |  |  |  |  | 394 | 509 | 707 |  |
| CTAtgtgttccTGT (CTATGTGTTCCTGT; chemistry not given here) [Compound 15-1] |  |  |  |  | 38 | 76 | 234 |  |
| GCCtcccagttccTTT (GCCTCCCAGTTCCTTT; chemistry not given here) [Compound 9-1] |  |  |  |  | 220 | 284 | 1593 |  |
| GTCagaaacaaccACC (GTCAGAAACAACCACC; chemistry not given here) [Compound 14-1] |  |  |  |  |  |  |  | EGF ([3]; day 3, 10 μM): 139 % saline; EGF ([3]; day 3, 100 μM): 220 % saline |
| TAAggcaatcaagGTA (TAAGGCAATCAAGGTA; chemistry not given here) [Compound 5-1] |  |  |  |  |  |  |  | EGF (PTEC-TERT1 cells; PTEC-TERT1, Day 3, 11 μM (Table 3)): 174 % saline; EGF (PTEC-TERT1 cells; PTEC-TERT1, Day 3, 33 μM (Table 3)): 222 % saline; EGF (PTEC-TERT1 cells; PTEC-TERT1, Day 3, 100 μM (Table 3)): 182 % saline; EGF (PTEC-TERT1 cells; PTEC-TERT1, Day 7, 11 μM (Table 3)): 158 % saline; EGF (PTEC-TERT1 cells; PTEC-TERT1, Day 7, 33 μM (Table 3)): 249 % saline; EGF (PTEC-TERT1 cells; PTEC-TERT1, Day 7, 100 μM (Table 3)): 754 % saline; EGF (PTEC-TERT1 cells; PTEC-TERT1, Day 10, 11 μM (Table 3)): 54 % saline; EGF (PTEC-TERT1 cells; PTEC-TERT1, Day 10, 33 μM (Table 3)): 210 % saline; EGF (PTEC-TERT1 cells; PTEC-TERT1, Day 10, 100 μM (Table 3)): 720 % saline |
| TGCtcaacatcAAG (TGCTCAACATCAAG; chemistry not given here) [Compound 11-1] |  |  |  |  | 38 | 127 | 371 | EGF ([3]; day 3, 10 μM): 184 % saline; EGF ([3]; day 3, 100 μM): 458 % saline |
| TTAcacttgacCCA (TTACACTTGACCCA; chemistry not given here) [Compound 12-1] |  |  |  |  | 19 | 27 | 71 |  |
| TTTacacttgaCCC (TTTACACTTGACCC; chemistry not given here) [Compound 13-1] |  |  |  |  | 27 | 29 | 39 |  |
